Here are results for 19 compounds from PubChem BioAssay AID292 (DTP/NCI, 2004).

This assay has as its system B6C3F1 mice, ip Sarcoma M5076, median survival T/C. The assay is described as follows: NCI In Vivo Anticancer Drug Screen. Data for tumor model Sarcoma M5076 (intraperitoneal) in B6C3F1 mice. The following applies: endpoint: median survival time, higher = longer survival. The procedure, abridged:
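Survival measured in treated (T) and vehicle control (C) mice with transplantable tumour; result given as T divided by C.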

The mark [1] stands for this setting: dose: 25.0 mg/kg/injection, schedule: Q04DX004 (ip), vehicle: saline with Tween-80.
The mark [2] stands for this setting: dose: 50.0 mg/kg/injection, schedule: Q04DX004 (ip), vehicle: saline with Tween-80.
The mark [3] stands for this setting: dose: 100.0 mg/kg/injection, schedule: Q04DX004 (ip), vehicle: saline with Tween-80.
Setting [4] is: dose: 200.0 mg/kg/injection, schedule: Q04DX004 (ip), vehicle: saline with Tween-80.
Setting [5] is: dose: 400.0 mg/kg/injection, schedule: Q04DX004 (ip), vehicle: saline with Tween-80.
The mark [6] stands for this setting: dose: 12.5 mg/kg/injection, schedule: Q04DX004 (ip), vehicle: saline with Tween-80.
The mark [7] stands for this setting: dose: 25.0 mg/kg/injection, schedule: Q04DX004 (ip), vehicle: Klucel (hydroxypropylcellulose) (HPC).
Where [8] appears, read: dose: 50.0 mg/kg/injection, schedule: Q04DX004 (ip), vehicle: Klucel (hydroxypropylcellulose) (HPC).
Setting [9] is: dose: 100.0 mg/kg/injection, schedule: Q04DX004 (ip), vehicle: Klucel (hydroxypropylcellulose) (HPC).
The mark [10] stands for this setting: dose: 6.25 mg/kg/injection, schedule: Q04DX004 (ip), vehicle: Klucel (hydroxypropylcellulose) (HPC).
Setting [11] is: dose: 12.5 mg/kg/injection, schedule: Q04DX004 (ip), vehicle: Klucel (hydroxypropylcellulose) (HPC).

“And” between values parts separate entries of the source, which are not always exact repeats. Equal values may be shown once. Toxic doses and inconclusive results are not listed.

For `O=C(Nc1nc(-c2ccccc2)cs1)OCC(Cl)(Cl)Cl`, the T/C is, setting by setting: under setting [1], 103 % of control; under setting [2], 107 % of control; under setting [3], 94 % of control; under setting [4], 91 % of control; under setting [5], 91 % of control.
Regarding `CC(C)CC(NC(=O)CF)C(=O)O` (centres undefined), the T/C is, setting by setting: (dose: 1.56 mg/kg/injection, schedule: Q04DX004 (ip), vehicle: saline with Tween-80) 98 % of control; (dose: 3.12 mg/kg/injection, schedule: Q04DX004 (ip), vehicle: saline with Tween-80) 102 % of control; (dose: 6.25 mg/kg/injection, schedule: Q04DX004 (ip), vehicle: saline with Tween-80) 95 % of control; under setting [6], 97 % of control.
Take `COc1ccc(-c2cc(C(=O)Nc3cc(C(F)(F)F)cc(C(F)(F)F)c3)c3ccccc3n2)cc1`: the T/C (dose: 50.0 mg/kg/injection, schedule: Q04DX004 (ip), vehicle: DMSO) was 101 % of control; the T/C (dose: 100.0 mg/kg/injection, schedule: Q04DX004 (ip), vehicle: DMSO) was 94 % of control; the T/C (dose: 200.0 mg/kg/injection, schedule: Q04DX004 (ip), vehicle: DMSO) is 110 % of control; the T/C (dose: 400.0 mg/kg/injection, schedule: Q04DX004 (ip), vehicle: DMSO) was 111 % of control.
Take `CCC/C=C/C=C/C(=O)OC1/C(=C/C(=O)OC)CC2CC(C(C)O)OC(=O)CC(O)CC3CC(OC(C)=O)C(C)(C)C(O)(CC4C/C(=C/C(=O)OC)CC(/C=C/C(C)(C)C1(O)O2)O4)O3` (centres undefined): the T/C was 102 % of control (dose: 10.0 micrograms/kg/injection, schedule: Q01DX009 (ip), vehicle: saline); 104 % of control (dose: 20.0 micrograms/kg/injection, schedule: Q01DX009 (ip), vehicle: saline); 107 % of control (dose: 40.0 micrograms/kg/injection, schedule: Q01DX009 (ip), vehicle: saline); 109 % of control (dose: 80.0 micrograms/kg/injection, schedule: Q01DX009 (ip), vehicle: saline).
In the case of `O=C1C2CC3CC1CC(Cl)(C3)C2`, the T/C is 105 % of control under setting [6], 99 % of control under setting [1] and 94 % of control under setting [2].
As to `Cc1c(-c2ccc(-c3ccccc3F)cc2)nc2ccc(F)cc2c1C(=O)O`, the T/C was 124 % of control (dose: 6.25 mg/kg/injection, schedule: Q01DX009 (ip), vehicle: water); 123 % of control (dose: 12.5 mg/kg/injection, schedule: Q01DX009 (ip), vehicle: water); 124 % of control (dose: 25.0 mg/kg/injection, schedule: Q01DX009 (ip), vehicle: water).
With `O=C1NC2(CN3CCC2CC3)C(=O)N1CN(Cc1ccccc1)c1ccccc1` (centres undefined), the T/C is 97 % of control under setting [2]; 102 % of control under setting [3]; 93 % of control under setting [4]; 87 % of control under setting [5]; 90 % of control (dose: 800.0 mg/kg/injection, schedule: Q04DX004 (ip), vehicle: saline with Tween-80).
Turning to `CN1C=C/C(=C/[N+](=O)[O-])N(C)C1=O`, the T/C was 103 % of control under setting [7]; 103 % of control under setting [8]; 99 % of control under setting [9]; 103 % of control (dose: 200.0 mg/kg/injection, schedule: Q04DX004 (ip), vehicle: Klucel (hydroxypropylcellulose) (HPC)).
Turning to `NC12CC3CC(CC(C3)C1)C2`, the T/C by setting is: under setting [1], 100 % of control; under setting [2], 94 % of control.
On to `CCN(CC)Cc1cc2[nH]c3c4ccc(Cl)cc4ncc3c2cc1OC` (tested in a mixture with another compound), for which the T/C was 104 % of control (dose: 18.75 mg/kg/injection, schedule: Q04DX004 (ip), vehicle: saline with Tween-80); 117 % of control under setting [1]; 112 % of control (dose: 37.5 mg/kg/injection, schedule: Q04DX004 (ip), vehicle: saline with Tween-80); 110 % of control under setting [2]; 99 % of control (dose: 75.0 mg/kg/injection, schedule: Q04DX004 (ip), vehicle: saline with Tween-80); 105 % of control under setting [3].
As to `O=c1c2cc3ccccc3cc2c(=O)n2n1CC=CC2`, the T/C was 100 % of control (dose: 20.31 mg/kg/injection, schedule: Q04DX004 (ip), vehicle: Klucel (hydroxypropylcellulose) (HPC)); 99 % of control (dose: 40.63 mg/kg/injection, schedule: Q04DX004 (ip), vehicle: Klucel (hydroxypropylcellulose) (HPC)); 99 % of control (dose: 81.25 mg/kg/injection, schedule: Q04DX004 (ip), vehicle: Klucel (hydroxypropylcellulose) (HPC)); 99 % of control (dose: 162.5 mg/kg/injection, schedule: Q04DX004 (ip), vehicle: Klucel (hydroxypropylcellulose) (HPC)); 99 % of control (dose: 325.0 mg/kg/injection, schedule: Q04DX004 (ip), vehicle: Klucel (hydroxypropylcellulose) (HPC)).
Turning to `CC(=O)OC1OC(=O)C(C)(C(C)=O)C1C` (centres undefined), the T/C is 100 % of control (dose: 2.5 mg/kg/injection, schedule: Q04DX004 (ip), vehicle: distilled water + alcohol); 105 % of control (dose: 5.0 mg/kg/injection, schedule: Q04DX004 (ip), vehicle: distilled water + alcohol); 104 % of control (dose: 10.0 mg/kg/injection, schedule: Q04DX004 (ip), vehicle: distilled water + alcohol); 104 % of control (dose: 20.0 mg/kg/injection, schedule: Q04DX004 (ip), vehicle: distilled water + alcohol); 95 % of control (dose: 40.0 mg/kg/injection, schedule: Q04DX004 (ip), vehicle: distilled water + alcohol).
Consider `Nc1c(/C=C/c2cc3cc(C4=NCCN4)ccc3o2)[nH]c2cc(C3=NCCN3)ccc12`, for which the T/C is 107 % of control under setting [10], 106 % of control under setting [11] and 104 % of control under setting [7].
For `Cn1c(=O)ccc2c1nc1ccccc1[n+]2[O-]`, the T/C by setting is: under setting [6], 98 % of control; under setting [1], 99 % of control; under setting [2], 103 % of control; under setting [3], 99 % of control; under setting [4], 94 % of control.
Regarding `CC1(C)CC(OS(C)(=O)=O)CC(C)(C)N1O`, the T/C (dose: 18.75 mg/kg/injection, schedule: Q04DX004 (ip), vehicle: Klucel (hydroxypropylcellulose) (HPC)) was 99 % of control; the T/C (dose: 37.5 mg/kg/injection, schedule: Q04DX004 (ip), vehicle: Klucel (hydroxypropylcellulose) (HPC)) is 100 % of control; the T/C (dose: 75.0 mg/kg/injection, schedule: Q04DX004 (ip), vehicle: Klucel (hydroxypropylcellulose) (HPC)) was 102 % of control; the T/C (dose: 150.0 mg/kg/injection, schedule: Q04DX004 (ip), vehicle: Klucel (hydroxypropylcellulose) (HPC)) is 102 % of control.
`CCOC(=O)c1cn(C)c2c1C(=O)C(C(=O)OCC)CC(=O)N2` (centres undefined): the T/C (dose: 31.25 mg/kg/injection, schedule: Q04DX004 (ip), vehicle: saline + Tween-80 + alcohol) was 100 % of control; the T/C (dose: 62.5 mg/kg/injection, schedule: Q04DX004 (ip), vehicle: saline + Tween-80 + alcohol) is 101 % of control; the T/C (dose: 125.0 mg/kg/injection, schedule: Q04DX004 (ip), vehicle: saline + Tween-80 + alcohol) was 94 % of control; the T/C (dose: 250.0 mg/kg/injection, schedule: Q04DX004 (ip), vehicle: saline + Tween-80 + alcohol) was 92 % of control.
Regarding `O=S1(=O)CS(=O)(=O)OCCO1`, the T/C (dose: 6.25 mg/kg/injection, schedule: Q01DX009 (oral), vehicle: Klucel (hydroxypropylcellulose) (HPC)) was 160 % of control; the T/C under setting [10] is 165 % of control; the T/C (dose: 12.5 mg/kg/injection, schedule: Q01DX001 (oral), vehicle: Klucel (hydroxypropylcellulose) (HPC)) was 109 % of control; the T/C (dose: 12.5 mg/kg/injection, schedule: Q01DX009 (oral), vehicle: Klucel (hydroxypropylcellulose) (HPC)) is 192 % of control; the T/C under setting [11] is 180 % of control; the T/C (dose: 25.0 mg/kg/injection, schedule: Q01DX009 (oral), vehicle: Klucel (hydroxypropylcellulose) (HPC)) is 300 % of control. Besides, the T/C runs as follows: under setting [7], 267 % of control and 290 % of control; (dose: 50.0 mg/kg/injection, schedule: Q01DX009 (oral), vehicle: Klucel (hydroxypropylcellulose) (HPC)) 300 % of control; under setting [8], 267 % of control and 300 % of control; (dose: 100.0 mg/kg/injection, schedule: Q01DX001 (oral), vehicle: Klucel (hydroxypropylcellulose) (HPC)) 300 % of control.
As to `CC(=O)C1C(=O)C(=O)N(c2ccc(C)cc2C)C1=O` (centres undefined), the T/C was 102 % of control under setting [8] and 98 % of control under setting [9].
As to `c1cc2n(n1)CCN2`, the T/C (dose: 50.0 mg/kg/injection, schedule: Q04DX005 (ip), vehicle: saline) was 86 % of control.
